Columns and labels:
ZBTB10 = assay: Western blot of ZBTB10 in MDA-MB-231 cells; format: cell-based, human; details: relative to β-actin, 48 h
MDA-MB-231 cells = assay: Migration assay of MDA-MB-231 cells; format: cell-based, human
Experimental: Migration assay: MDA-MB-231 cells were grown in 60 mm diameter dishes and treated as described in “Cell culture and compound treatment” for 12 h. The medium was then removed and replaced with growth medium lacking FBS but with the same concentration of compound. After 12 h of serum starvation, the cells were detached and seeded to ThinCert™ (GBO) 24-well hanging inserts with 8 μm pores (˜5×10^4 cells per insert). Fresh growth medium with FBS was dispended in a 24-well plate (600 μL each well), and the ThinCert™ hanging inserts containing cells were then placed into the wells. After incubating for 24 h, the growth medium in the inserts was removed, and the remaining cells were washed twice with 1×DPBS. Cells were fixed by addition of 3% (w/v) paraformaldehyde (PFA) prepared in 1×DPBS at room temperature for 20 min. The PFA solution was removed, and cells were washed twice with 1×PBS. The cells were then stained with Crystal Violet (10 mg/mL; 4:1 H2O: MeOH) at room temperature for 20 min. A cotton swab was used to gently remove non-migrating cells from the top side of the filter. The remaining cells were then imaged by microscopy and counted for quantification (3 fields of view per sample).

pri-miR-27a = assay: RT-qPCR of pri- and mature miR-27a in HeLa cells; format: cell-based, human
Experimental: Cell lines. Compounds were tested in MDA-MB-231 TNBC cells (HTB-26, ATCC), LNCaP metastatic prostate cancer cells (gifted from Junli Luo lab), MCF-7 (HTB-22, ATCC) breast cancer cells, HeLa cervical adenocarcinoma cells (CCL-2, ATCC), and MCF-10a, a model of healthy breast epithelial cells (CRL-10317, ATCC).
Cell culture and compound treatment. All cells were maintained at 37° C. with 5% CO2. MDA-MB-231 and LNCaP cells were cultured in RPMI 1640 medium with L-glutamine & 25 mM HEPES (Corning) supplemented with 10% (v/v) fetal bovine serum (FBS; Sigma) and 1× (v/v) Antibiotic-Antimycotic solution (Corning). MCF-7 and HeLa cells were cultured in DMEM medium with 4.5 g/L glucose (Corning), supplemented with 10% FBS, 1× (v/v) Glutagro (Corning), and 1× (v/v) Antibiotic-Antimycotic solution. […]
Analysis of mRNA abundance: Each cell line was grown as a monolayer in 12- or 24-well plates and treated as described in “Cell culture and compound treatment”. […] Relative abundance of mature miRNAs was calculated by normalizing to RNU6, and relative abundance for pri-miRNAs and mRNAs was calculated by normalizing to 18S ribosomal RNA, using the AAC, method. […]

[1] = target: 5′GAG/3′CCC loop at pri-miR-27a's Drosha site; assay: Binding affinity by microscale thermophoresis (MST), Cy5-labeled RNA; parameters: species or system human
Experimental: Binding affinity measurements: Binding affinities were measured by microscale thermophoresis (MST), performed on a Monolith NT.115 system (NanoTemper Technologies) with Cy5-labeled RNAs. These RNAs include: the 5′GAG/3′CCC SEQ ID NO: 16 loop at pri-miR-27a's Drosha site (Sequence:/5′-Cy5/rCrUrGrArGrGrUrGrArArArCrArUrCrCrCrArG SEQ ID NO: 17; Dharmacon), a related internal loop not selected by 9. 5′CAG/3′GCC SEQ ID NO: 17 loop (Sequence:/5′-Cy5/rCrUrCrArGrGrUrGrArArArCrArUrCrCrGrArG SEQ ID NO: 16; Dharmacon), and an RNA in which the loop is mutated to a base pair (Sequence:/5-Cy5/rCrUrGrArGrGrUrGrArArArCrArUrCrUrCrArG SEQ ID NO: 16; Dharmacon).
Briefly, Cy5-labeled RNA (10 nM) was prepared in 1× Binding Buffer and folded by heating at 60° C. for 5 min and then slowly cooling to room temperature. After cooling, Tween-20 was added to a final concentration of 0.1% (v/v). Compound solutions were prepared separately in 20 μL of 1× Binding Buffer at a final concentration of 5 μM (1% (v/v) DMSO), followed by 1:1 serial dilutions in 1× Binding Buffer. RNA and compound solutions were then mixed 1:1 by volume to a total of 20 μL.
Samples were incubated for 20 min at room temperature and then loaded into premium capillaries (NanoTemper Tech, Cat #MO-K025). The following parameters were used for MST measurements: 5-20% LED power (adjusted to keep fluorescence intensity between 2000 and 8000), 80% MST power, Laser-On time=30 s, Laser-Off time=25 s. The resulting data were analyzed by calculating the change in thermophoresis as a function of compound concentration and fitted by Equation 1, a one site binding model, in NanoTemper Tech's MST analysis software to yield the dissociation constant (Kd):
Where F is the concentration of fluorescently labeled RNA; unbound and bound refer to the thermophoresis signal at completely unbound and bound state of RNA, respectively; c is the concentration of the compound; f (c) is the thermophoresis signal at compound concentration of c; and Kd is the dissociation constant.

Compound: C#CCN(CC(N)=O)C(=O)C[C@H](Cc1c[nH]c2ccccc12)NC(=O)[C@@H]1C[C@H](NC(=O)Cn2c(=O)[nH]c3ccccc3c2=O)CN1 [Compound 9]
- ZBTB10 expression (ZBTB10): upregulation
- number of migrated cells (MDA-MB-231 cells; MDA-MB-231, normalized to vehicle): dose dependent reduction
- concentration with statistically significant phenotype reduction (MDA-MB-231 cells; MDA-MB-231 migration): 100 nM
- dose with significant inhibition of miR-27a processing (pri-miR-27a): 100 nM
- Kd [1]: 90 ± 20 nM

Source: patent publication US20250051762A1, “PLATFORM USING DNA-ENCODED SMALL MOLECULE LIBRARIES AND RNA SELECTION TO DESIGN SMALL MOLECULES THAT TARGET RNA” (University of Florida Research Foundation, Incorporated, priority 2021, published 2025)
